According to patent US10144715B2, “Piperazine derivatives as liver X receptor modulators” (priority 2014, dated 2018):
Read-outs that look alike come from different tables or passages of the source.

How the values were obtained:
[1] = biological target: Gal4 DNA binding domain fused to the LBD of LXRα in HEK293 cells (Homo sapiens (Human), UniProt Q13133); experiment: LXR luciferase transcriptional reporter gene assay, agonist mode, LXRα; assay type: cell-based; conditions: for EC50: read-out: Cell LXRα EC50
Sequence of Gal4 DNA binding domain fused to the LBD of LXRα in HEK293 cells (Q13133 209-447): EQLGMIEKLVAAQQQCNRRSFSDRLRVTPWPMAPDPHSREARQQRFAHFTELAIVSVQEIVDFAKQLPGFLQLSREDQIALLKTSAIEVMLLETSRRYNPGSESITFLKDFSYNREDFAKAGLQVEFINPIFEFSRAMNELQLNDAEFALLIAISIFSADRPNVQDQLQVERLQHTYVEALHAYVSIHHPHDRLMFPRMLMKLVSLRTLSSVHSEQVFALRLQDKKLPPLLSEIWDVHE

[2] = biological target: LXR α LBD protein (Homo sapiens (Human), UniProt Q13133); experiment: LXR α radioligand binding assay (SPA, competition with [3H]TO901317); conditions: read-out: LXRα Binding Ki
Sequence of LXR α LBD protein (Q13133 209-447): as above

[3] = biological target: Gal4 DNA binding domain fused to the LBD of LXRβ in HEK293 cells (Homo sapiens (Human), UniProt P55055); experiment: cell-based; conditions: for Cell LXRβ efficacy: agonist mode
Sequence of Gal4 DNA binding domain fused to the LBD of LXRβ in HEK293 cells (P55055 222-460 limits assumed): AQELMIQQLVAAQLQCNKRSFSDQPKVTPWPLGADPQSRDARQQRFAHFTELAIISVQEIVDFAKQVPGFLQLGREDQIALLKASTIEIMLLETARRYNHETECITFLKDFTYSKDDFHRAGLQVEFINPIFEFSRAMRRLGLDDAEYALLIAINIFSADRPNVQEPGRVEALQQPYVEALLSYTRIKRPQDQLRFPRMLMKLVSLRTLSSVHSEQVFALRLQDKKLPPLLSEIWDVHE

[4] = biological target: LXR β LBD protein (Homo sapiens (Human), UniProt P55055); experiment: biochemical; assay type: binding
Sequence of LXR β LBD protein (P55055 222-460 limits assumed): as above

For `CC(C)[C@@H]1CN(c2ccc(F)c(S(C)(=O)=O)c2)CCN1c1ncc(CN(C)CCCO)c(C(F)(F)F)n1` [15-9, (R)-3-(((2-(4-(4-fluoro-3-(methylsulfonyl)phenyl)-2-isopropylpiperazin-1-yl)-4-(trifluoromethyl)pyrimidin-5-yl)methyl)(methyl)amino)propan-1-ol], the “Cell LXRα efficacy” value [1] was 4170 (10) %, the EC50 ([1]; agonist mode) was 4170 nM and the Ki [2] was 2060 nM. It also gave an EC50 [3] greater than 20000 nM and a Ki [4] of 146 nM.
For `CNC(=O)c1cnc(N2CCN(c3ccc(F)c(S(C)(=O)=O)c3)C[C@H]2C(C)C)nc1C(F)(F)F` [17-3, (R)-2-(4-(4-fluoro-3-(methylsulfonyl)phenyl)-2-isopropylpiperazin-1-yl)-N-methyl-4-(trifluoromethyl)pyrimidine-5-carboxamide], the “Cell LXRα efficacy” value [1] was 5514 (29) %, the EC50 ([1]; agonist mode) was 5510 nM and the Ki [2] was 2690 nM. For the same compound, the EC50 [3] was 448 nM, the “Cell LXRβ efficacy” value [3] was 448 (18) % and the Ki ([4]; read-out: LXRβ Binding Ki) was 188 nM.
For `COCCNC(=O)c1cnc(N2CCN(c3ccc(F)c(S(C)(=O)=O)c3)C[C@H]2C(C)C)nc1C(F)(F)F` [17-6, (R)-2-(4-(4-fluoro-3-(methylsulfonyl)phenyl)-2-isopropylpiperazin-1-yl)-N-(2-methoxyethyl)-4-(trifluoromethyl)pyrimidine-5-carboxamide], the EC50 ([1]; agonist mode) was greater than 20000 nM, the Ki [2] was greater than 3330 nM and the EC50 [3] was greater than 20000 nM. It also gave a Ki ([4]; read-out: LXRβ Binding Ki) of 532 nM.
`CC(C)[C@@H]1CN(c2ccc(F)c(S(C)(=O)=O)c2)CCN1c1ncc(C(=O)N(C)CCO)c(C(F)(F)F)n1` [17-7, (R)-2-(4-(4-fluoro-3-(methylsulfonyl)phenyl)-2-isopropylpiperazin-1-yl)-N-(2-hydroxyethyl)-N-methyl-4-(trifluoromethyl)pyrimidine-5-carboxamide] was tested, and the EC50 [1] was greater than 20000 nM, the Ki [2] was greater than 3330 nM and the EC50 [3] was greater than 20000 nM. It also gave a Ki [4] of 507 nM.
For `COC1CN(C(=O)c2cnc(N3CCN(c4ccc(F)c(S(C)(=O)=O)c4)C[C@H]3C(C)C)nc2C(F)(F)F)C1` [17-9, (R)-(2-(4-(4-fluoro-3-(methylsulfonyl)phenyl)-2-isopropylpiperazin-1-yl)-4-(trifluoromethyl)pyrimidin-5-yl)(3-methoxyazetidin-1-yl)methanone], the EC50 [1] was greater than 20000 nM, the Ki [2] was greater than 3330 nM and the EC50 [3] was greater than 20000 nM. For the same compound, the Ki ([4]; read-out: LXRβ Binding Ki) was 410 nM.
Compound `COCCCN(C)C(=O)c1cnc(N2CCN(c3ccc(F)c(S(C)(=O)=O)c3)C[C@H]2C(C)C)nc1C(F)(F)F` [17-13, (R)-2-(4-(4-fluoro-3-(methylsulfonyl)phenyl)-2-isopropylpiperazin-1-yl)-N-(3-methoxypropyl)-N-methyl-4-(trifluoromethyl)pyrimidine-5-carboxamide] has an EC50 ([1]; agonist mode) greater than 20000 nM, a Ki [2] of 2880 nM and an EC50 [3] greater than 20000 nM. For the same compound, the Ki ([4]; read-out: LXRβ Binding Ki) was 253 nM.
`CCN(CCOC)C(=O)c1cnc(N2CCN(c3ccc(F)c(S(C)(=O)=O)c3)C[C@H]2C(C)C)nc1C(F)(F)F` [17-14, (R)-N-ethyl-2-(4-(4-fluoro-3-(methylsulfonyl)phenyl)-2-isopropylpiperazin-1-yl)-N-(2-methoxyethyl)-4-(trifluoromethyl)pyrimidine-5-carboxamide] gave an EC50 ([1]; agonist mode) greater than 20000 nM, a Ki [2] of 915 nM and an EC50 [3] greater than 20000 nM. It also gave a Ki ([4]; read-out: LXRβ Binding Ki) of 113 nM.
Compound `CCN(CCCO)C(=O)c1cnc(N2CCN(c3ccc(F)c(S(C)(=O)=O)c3)C[C@H]2C(C)C)nc1C(F)(F)F` [17-15, (R)-N-ethyl-2-(4-(4-fluoro-3-(methylsulfonyl)phenyl)-2-isopropylpiperazin-1-yl)-N-(3-hydroxypropyl)-4-(trifluoromethyl)pyrimidine-5-carboxamide] has an EC50 [1] greater than 20000 nM, a Ki [2] greater than 3330 nM and an EC50 [3] greater than 20000 nM. For the same compound, the Ki ([4]; read-out: LXRβ Binding Ki) was 360 nM.
`COC(=O)NCCCN(C)C(=O)c1cnc(N2CCN(c3ccc(F)c(S(C)(=O)=O)c3)C[C@H]2C(C)C)nc1C(F)(F)F` [17-19, methyl (R)-(3-(2-(4-(4-fluoro-3-(methylsulfonyl)phenyl)-2-isopropylpiperazin-1-yl)-N-methyl-4-(trifluoromethyl)pyrimidine-5-carboxamido)propyl)carbamate] showed an EC50 ([1]; agonist mode) greater than 20000 nM, a Ki [2] greater than 3330 nM and an EC50 [3] greater than 20000 nM. For the same compound, the Ki ([4]; read-out: LXRβ Binding Ki) was 584 nM.
In the case of `CC(C)[C@@H]1CN(c2ccc(F)c(S(C)(=O)=O)c2)CCN1c1ncc(C(=O)N(C)CCCNC(=O)OC(C)(C)C)c(C(F)(F)F)n1` [17-23, tert-butyl (R)-(3-(2-(4-(4-fluoro-3-(methylsulfonyl)phenyl)-2-isopropylpiperazin-1-yl)-N-methyl-4-(trifluoromethyl)pyrimidine-5-carboxamido)propyl)carbamate], the EC50 ([1]; agonist mode) is reported as greater than 20000 nM, the Ki [2] is reported as 1420 nM and the EC50 [3] is reported as greater than 20000 nM. The Ki ([4]; read-out: LXRβ Binding Ki) was 257 nM.
For `Cc1nc(N2CCN(c3ccc(F)c(S(C)(=O)=O)c3)C[C@H]2C(C)C)ncc1C(N)=O` [17-24, (R)-2-(4-(4-fluoro-3-(methylsulfonyl)phenyl)-2-isopropylpiperazin-1-yl)-4-methylpyrimidine-5-carboxamide], the EC50 ([1]; agonist mode) was greater than 20000 nM, the Ki [2] was greater than 3330 nM and the EC50 [3] was greater than 20000 nM. For the same compound, the Ki ([4]; read-out: LXRβ Binding Ki) was 611 nM.
In the case of `COCCN(C)C(=O)c1cnc(N2CCN(c3ccc(F)c(S(C)(=O)=O)c3)C[C@H]2C(C)C)nc1C` [17-26, (R)-2-(4-(4-fluoro-3-(methylsulfonyl)phenyl)-2-isopropylpiperazin-1-yl)-N-(2-methoxyethyl)-N,4-dimethylpyrimidine-5-carboxamide], the EC50 ([1]; agonist mode) is reported as greater than 20000 nM, the Ki [2] is reported as greater than 3330 nM and the EC50 [3] is reported as greater than 20000 nM. The Ki ([4]; read-out: LXRβ Binding Ki) was 2330 nM.
Work on `Cc1nc(N2CCN(c3ccc(F)c(S(C)(=O)=O)c3)C[C@H]2C(C)C)ncc1C(=O)N(C)CCCO` [17-27, (R)-2-(4-(4-fluoro-3-(methylsulfonyl)phenyl)-2-isopropylpiperazin-1-yl)-N-(3-hydroxypropyl)-N,4-dimethylpyrimidine-5-carboxamide] yielded an EC50 [1] greater than 20000 nM, a Ki [2] greater than 3330 nM and an EC50 [3] greater than 20000 nM. For the same compound, the Ki ([4]; read-out: LXRβ Binding Ki) was greater than 2500 nM.
With `CC(C)[C@@H]1CN(c2cc(S(C)(=O)=O)c(CO)cc2F)CCN1c1ncc(C(N)=O)c(C(F)(F)F)n1` [17-29, (R)-2-(4-(2-fluoro-4-(hydroxymethyl)-5-(methylsulfonyl)phenyl)-2-isopropylpiperazin-1-yl)-4-(trifluoromethyl)pyrimidine-5-carboxamide] the “Cell LXRα efficacy” value [1] was 1950 (15) %, the EC50 ([1]; agonist mode) was 1950 nM and the Ki [2] was 1270 nM. The EC50 [3] was 142 nM, the “Cell LXRβ efficacy” value [3] was 142 (17) % and the Ki ([4]; read-out: LXRβ Binding Ki) was 191 nM.
Compound `CCN(CCOC)C(=O)c1cnc(N2CCN(c3ccc(F)c(S(C)(=O)=O)c3)C[C@H]2C(C)C)nc1C` [17-30, (R)-N-ethyl-2-(4-(4-fluoro-3-(methylsulfonyl)phenyl)-2-isopropylpiperazin-1-yl)-N-(2-methoxyethyl)-4-methylpyrimidine-5-carboxamide] has an EC50 ([1]; agonist mode) greater than 20000 nM, a Ki [2] greater than 3330 nM and an EC50 [3] greater than 20000 nM. For the same compound, the Ki [4] was 1800 nM.
Work on `COCCCN(C)C(=O)c1cnc(N2CCN(c3ccc(F)c(S(C)(=O)=O)c3)C[C@H]2C(C)C)nc1C` [17-31, (R)-2-(4-(4-fluoro-3-(methylsulfonyl)phenyl)-2-isopropylpiperazin-1-yl)-N-(3-methoxypropyl)-N,4-dimethylpyrimidine-5-carboxamide] yielded an EC50 ([1]; agonist mode) greater than 20000 nM, a Ki [2] greater than 3330 nM and an EC50 [3] greater than 20000 nM. It also gave a Ki [4] of 2450 nM.
`CN(C)C(=O)c1cnc(N2CCN(c3ccc(F)c(S(C)(=O)=O)c3)C[C@H]2c2ccc(F)cc2)nc1C(F)(F)F` [17-33, (R)-2-(4-(4-fluoro-3-(methylsulfonyl)phenyl)-2-(4-fluorophenyl)piperazin-1-yl)-N,N-dimethyl-4-(trifluoromethyl)pyrimidine-5-carboxamide] was tested, and the EC50 ([1]; agonist mode) was greater than 20000 nM, the Ki [2] was 10600 nM and the EC50 [3] was greater than 20000 nM. It also gave a Ki [4] of 1220 nM.
With `CC(C)[C@@H]1CN(c2ccc(CO)c(S(C)(=O)=O)c2)CCN1c1nc(C(F)(F)F)c(C(=O)N(C)C)s1` [17-34, (R)-2-(4-(4-(hydroxymethyl)-3-(methylsulfonyl)phenyl)-2-isopropylpiperazin-1-yl)-N,N-dimethyl-4-(trifluoromethyl)thiazole-5-carboxamide] the “Cell LXRα efficacy” value [1] was 465 (98) %, the EC50 ([1]; agonist mode) was 465 nM and the Ki [2] was 152 nM. The EC50 [3] was 105 nM, the “Cell LXRβ efficacy” value [3] was 105 (94) % and the Ki ([4]; read-out: LXRβ Binding Ki) was 23 nM.
In the case of `CC(C)[C@@H]1CN(c2ccc(CO)c(S(C)(=O)=O)c2)CCN1c1nc(C(F)(F)F)c(C(N)=O)s1` [17-35, (R)-2-(4-(4-(hydroxymethyl)-3-(methylsulfonyl)phenyl)-2-isopropylpiperazin-1-yl)-4-(trifluoromethyl)thiazole-5-carboxamide], the “Cell LXRα efficacy” value [1] is reported as 1738 (19) %, the EC50 [1] is reported as 1740 nM and the Ki [2] is reported as 1660 nM. The EC50 [3] was 161 nM, the “Cell LXRβ efficacy” value [3] was 161 (23) % and the Ki ([4]; read-out: LXRβ Binding Ki) was 111 nM.
With `CC(C)[C@@H]1CN(c2ccc(CO)c(S(C)(=O)=O)c2)CCN1c1nc(C(F)(F)F)c(C(C)(C)O)o1` [26-2, (R)-2-(2-(4-(4-(hydroxymethyl)-3-(methylsulfonyl)phenyl)-2-isopropylpiperazin-1-yl)-4-(trifluoromethyl)oxazol-5-yl)propan-2-ol] the “Cell LXRα efficacy” value [1] was 2233 (99) %, the EC50 [1] was 2230 nM and the Ki [2] was 1180 nM. For the same compound, the EC50 [3] was 329 nM, the “Cell LXRβ efficacy” value [3] was 329 (74) % and the Ki ([4]; read-out: LXRβ Binding Ki) was 72 nM.
For `CC(C)(O)CC1CN(c2ccc(F)c(S(C)(=O)=O)c2)CCN1c1ccc(C(F)(F)F)cn1` (stereo not shown) [34-1, 1-(4-(4-fluoro-3-(methylsulfonyl)phenyl)-1-(5-(trifluoromethyl)pyridin-2-yl)piperazin-2-yl)-2-methylpropan-2-ol], the “Cell LXRα efficacy” value [1] was 2456 (78) %, the EC50 [1] was 2460 nM and the Ki [2] was 1240 nM. For the same compound, the EC50 [3] was 670 nM, the “Cell LXRβ efficacy” value [3] was 670 (83) % and the Ki ([4]; read-out: LXRβ Binding Ki) was 151 nM.
With `CC(C)(F)CC1CN(c2ccc(F)c(S(C)(=O)=O)c2)CCN1c1ccc(C(F)(F)F)cn1` (stereo not shown) [35-1, 2-(2-fluoro-2-methylpropyl)-4-(4-fluoro-3-(methylsulfonyl)phenyl)-1-(5-(trifluoromethyl)pyridin-2-yl)piperazine] the “Cell LXRα efficacy” value [1] was 1522 (97) %, the EC50 [1] was 1520 nM and the Ki [2] was 272 nM. The EC50 [3] was 499 nM, the “Cell LXRβ efficacy” value [3] was 499 (88) % and the Ki ([4]; read-out: LXRβ Binding Ki) was 38 nM.
